Tested on: 994946-033-R-J1-PDC complex spheroid viability
Test: Anticancer human tumor 994946-033-R-J1-PDC patient-derived melanoma cell line growth inhibition [POLQ]
Details: for IC50: curve of first compound; for viability, T/C: stronger effect = lower value
How it was run: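 Growth inhibition in 3D: complex spheroids (tumor PDC, HUVEC, MSC) treated with POLQ inhibitor combinations; where Cmax unknown, highest tested concentration 10 microM, except SN-38 at 1 microM.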

[1] = second compound 0.0316 µM, first compound 0.0316 µM
[2] = second compound 0.0316 µM, first compound 0.1 µM
[3] = second compound 0.0316 µM, first compound 0.316 µM
[4] = second compound 0.0316 µM, first compound 1 µM
[5] = second compound 0.1 µM, first compound 0.0316 µM
[6] = second compound 0.1 µM, first compound 0.1 µM
[7] = second compound 0.1 µM, first compound 0.316 µM
[8] = second compound 0.1 µM, first compound 1 µM
[9] = second compound 0.316 µM, first compound 0.0316 µM
[10] = second compound 0.316 µM, first compound 0.1 µM
[11] = second compound 0.316 µM, first compound 0.316 µM
[12] = second compound 0.316 µM, first compound 1 µM
[13] = second compound 1 µM, first compound 0.0316 µM
[14] = second compound 1 µM, first compound 0.1 µM
[15] = second compound 1 µM, first compound 0.316 µM
[16] = second compound 1 µM, first compound 1 µM
[17] = second compound 3.16 µM, first compound 0.0316 µM
[18] = second compound 3.16 µM, first compound 0.1 µM
[19] = second compound 3.16 µM, first compound 0.316 µM
[20] = second compound 3.16 µM, first compound 1 µM
[21] = second compound 10 µM, first compound 0.0316 µM
[22] = second compound 10 µM, first compound 0.1 µM
[23] = second compound 10 µM, first compound 0.316 µM
[24] = second compound 10 µM, first compound 1 µM
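Also: spheroids exposed to drugs for 7 days.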
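For viability, T/C in this document: 100% = DMSO vehicle treated spheroids.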

Work on `COc1cccc(OCCCN)c1-c1cc(Nc2cnc(C#N)cn2)n[nH]1` + Nc1ccc(C#CCN(C(=O)Cc2ncc(C(F)(F)F)cc2C(F)(F)F)c2ccc(F)cc2)nn1 yielded an IC50 (second compound 0.0316 µM) of 25 nM, an IC50 (second compound 0.1 µM) of 23.5 nM and an IC50 (second compound 0.316 µM) of 17.1 nM. The IC50 (second compound 1 µM) was 16.1 nM, the IC50 (second compound 3.16 µM) was 23.7 nM and the IC50 (second compound 10 µM) was 19.7 nM. It also gave a viability, T/C (second compound 0.0316 µM, first compound 0.00316 µM) of 71%, a viability, T/C (second compound 0.0316 µM, first compound 0.01 µM) of 66.9% and a viability, T/C [1] of 34.4%. For the same compound, the viability, T/C [2] was 49%, the viability, T/C [3] was 14.3% and the viability, T/C [4] was 17.4%. The viability, T/C (second compound 0.1 µM, first compound 0.00316 µM) was 86.9%, the viability, T/C (second compound 0.1 µM, first compound 0.01 µM) was 69.2% and the viability, T/C [5] was 38.4%. For the same compound, the viability, T/C [6] was 39.4%, the viability, T/C [7] was 25% and the viability, T/C [8] was 24.3%. For the same compound, the viability, T/C (second compound 0.316 µM, first compound 0.00316 µM) was 92.2%, the viability, T/C (second compound 0.316 µM, first compound 0.01 µM) was 66.1% and the viability, T/C [9] was 31.9%. For the same compound, the viability, T/C [10] was 19.9%, the viability, T/C [11] was 25.6% and the viability, T/C [12] was 15.7%. It also gave a viability, T/C (second compound 1 µM, first compound 0.00316 µM) of 80.1%, a viability, T/C (second compound 1 µM, first compound 0.01 µM) of 60.7% and a viability, T/C [13] of 34.6%. The viability, T/C [14] was 24.4%, the viability, T/C [15] was 17.6% and the viability, T/C [16] was 19%. The viability, T/C (second compound 3.16 µM, first compound 0.00316 µM) was 94.6%, the viability, T/C (second compound 3.16 µM, first compound 0.01 µM) was 66.6% and the viability, T/C [17] was 47.5%. The viability, T/C [18] was 24.2%, the viability, T/C [19] was 28.7% and the viability, T/C [20] was 19.9%. It also gave a viability, T/C (second compound 10 µM, first compound 0.00316 µM) of 100%, a viability, T/C (second compound 10 µM, first compound 0.01 µM) of 64.5% and a viability, T/C [21] of 30.5%. The viability, T/C [22] was 44.3%, the viability, T/C [23] was 30.3% and the viability, T/C [24] was 19.1%.

`O=C(c1cc(Cc2n[nH]c(=O)c3ccccc23)ccc1F)N1CCN(C(=O)C2CC2)CC1` + Nc1ccc(C#CCN(C(=O)Cc2ncc(C(F)(F)F)cc2C(F)(F)F)c2ccc(F)cc2)nn1 gave an IC50 (second compound 0.0316 µM) of 6710 nM, an IC50 (second compound 0.1 µM) of 6450 nM and an IC50 (second compound 0.316 µM) of 4090 nM. For the same compound, the IC50 (second compound 1 µM) was 5260 nM, the IC50 (second compound 3.16 µM) was 3820 nM and the IC50 (second compound 10 µM) was 7000 nM. It also gave a viability, T/C [1] of 116%, a viability, T/C [2] of 88.8% and a viability, T/C [3] of 101%. The viability, T/C [4] was 72.6%, the viability, T/C (second compound 0.0316 µM, first compound 3.16 µM) was 76.6% and the viability, T/C (second compound 0.0316 µM, first compound 10 µM) was 37.3%. The viability, T/C [5] was 61.7%, the viability, T/C [6] was 113% and the viability, T/C [7] was 70.5%. For the same compound, the viability, T/C [8] was 78.6%, the viability, T/C (second compound 0.1 µM, first compound 3.16 µM) was 83.5% and the viability, T/C (second compound 0.1 µM, first compound 10 µM) was 30.6%. The viability, T/C [9] was 101%, the viability, T/C [10] was 84.9% and the viability, T/C [11] was 84%. It also gave a viability, T/C [12] of 55.8%, a viability, T/C (second compound 0.316 µM, first compound 3.16 µM) of 70.8% and a viability, T/C (second compound 0.316 µM, first compound 10 µM) of 29.6%. For the same compound, the viability, T/C [13] was 78.9%, the viability, T/C [14] was 111% and the viability, T/C [15] was 66%. For the same compound, the viability, T/C [16] was 92.8%, the viability, T/C (second compound 1 µM, first compound 3.16 µM) was 55.9% and the viability, T/C (second compound 1 µM, first compound 10 µM) was 42.6%. It also gave a viability, T/C [17] of 94.8%, a viability, T/C [18] of 80.3% and a viability, T/C [19] of 77.8%. The viability, T/C [20] was 58.8%, the viability, T/C (second compound 3.16 µM, first compound 3.16 µM) was 57.9% and the viability, T/C (second compound 3.16 µM, first compound 10 µM) was 37.1%. For the same compound, the viability, T/C [21] was 66.4%, the viability, T/C [22] was 87.3% and the viability, T/C [23] was 70.3%. The viability, T/C [24] was 92.3%, the viability, T/C (second compound 10 µM, first compound 3.16 µM) was 80.1% and the viability, T/C (second compound 10 µM, first compound 10 µM) was 36.8%.

From PubChem BioAssay AID1963827 (Molecular Pharmacology Branch, DTP, NCI, 2024)
